Where a SMILES comes first, the peptide text is derived from it.
Assay: GHS categories as the set defines them, by LD50: 1 up to 5, 2 up to 50, 3 up to 300, 4 up to 2000, 5 above 2000 mg/kg
Conditions: rat; in vivo; po

| Compound | GHS category |
| --- | --- |
| Nc1c(I)c(C(=O)O)c(I)c(C(=O)NCC(O)CO)c1I (configuration not stated) | 5 |
| CCOP(=S)(Oc1cnc(C(C)(C)C)nc1)OC(C)C (configuration not stated) | 1 |
| COC(=O)c1cc(Oc2ccc(C(=O)OC)cc2N)cc(C(=O)OC)c1 | 5 |
| CC(=O)OC1CCCCC1C (configuration not stated) | 5 |
| COc1cccc(C(=O)NN(C(=O)c2cc(C)cc(C)c2)C(C)(C)C)c1C | 5 |
| COc1ccc(C2NC(=O)CCS2)cc1 (configuration not stated) | 5 |
| CC1Oc2cc(C(=O)C=Cc3ccccc3)ccc2N(C)C1=O (configuration not stated) | 5 |
| COCc1cnc(C2=NC(C)(C(C)C)C(=O)N2)c(C(=O)O)c1 (configuration not stated) | 5 |
| CCCOc1ccc(-c2ccc(C#N)cc2)cc1 | 5 |
| CC1COc2ccccc2N1C(=O)C(Cl)Cl (configuration not stated) | 5 |
| O=CN(O)CCCP(=O)(O)O | 5 |
| CCCCC(CC)COC(=O)CC(CC(=O)OCC(CC)CCCC)(OC(C)=O)C(=O)OCC(CC)CCCC (configuration not stated) | 5 |
| C=C(C)C1CCC(C)=C1CC(C)(C)COC(=O)CC (configuration not stated) | 5 |
| COc1ccccc1N1CCN(CC(O)COc2cccc3ccccc23)CC1 (configuration not stated) | 5 |
| C[C@]12COC(=O)C[C@@H]1CC[C@@H]1[C@@H]2CC[C@@]2(C)[C@H]1CC[C@]2(C)O | 5 |
| N#C[Se]Cc1ccc(C[Se]C#N)cc1 | 4 |
| COC(=O)c1ccccc1S(=O)(=O)NC(=O)N(C)c1nc(C)nc(OC)n1 | 5 |
| FC(F)(F)c1cccc(N2CCc3ccccc3C2c2ccccc2)c1 (configuration not stated) | 4 |
| O=C(O)c1[nH]n(-c2ccc(S(=O)(=O)O)cc2)c(=O)c1/N=N/c1ccc(S(=O)(=O)O)cc1 | 5 |
| CC(C)C1C=C2CCC3C(C)(CO)CCCC3(C)C2CC1 (configuration not stated) | 5 |
| Cc1ccc(C(=O)OCCCl)cc1N=Nc1c(O)c(C(=O)Nc2cc(C)c(NC(=O)c3cc4ccccc4c(N=Nc4cc(C(=O)OCCCl)ccc4C)c3O)cc2C)cc2ccccc12 | 5 |
| C=C(C)C(C)(C)Cc1ccc(Nc2ccc(CC(C)(C)C(=C)C)cc2)cc1 | 5 |
| CC(C)Oc1ccc2c(=O)c(-c3ccccc3)coc2c1 | 5 |
| CO[C@@]1(NC(=O)CSC[C@@H](N)C(=O)O)C(=O)N2C(C(=O)O)=C(CSc3nnnn3C)CS[C@@H]21 | 5 |

| Compound | GHS category |
| --- | --- |
| C[C@]12CC[C@H]3[C@@H](CC[C@@]45O[C@@H]4C(O)=C(C#N)C[C@]35C)[C@@H]1CC[C@@H]2O | 5 |
| O=C(O)c1ccccc1Nc1ccc(Cl)c2ccccc12 | 5 |
| NC(N)=N[C@@H](CS)C(=O)O | 5 |
| O=C(O)CCCCCCCCCCNS(=O)(=O)c1ccc(Cl)cc1C(=O)c1ccccc1 | 4 |
| COc1ccccc1C1NC(=O)C(C)S1 (configuration not stated) | 5 |
| CCCc1nc(C)c2c(=O)nc(-c3cc(S(=O)(=O)O)ccc3OCC)[nH]n12 | 5 |
| COC1(C)CCCCCCCCCCC1 | 5 |
| CCCCCCCCCCCCCCCc1cccc(OC(=O)c2cc(Cl)ccc2OC(N)=O)c1 | 5 |
| OC(c1ccccc1)c1cccnc1Cl (configuration not stated) | 5 |
| CCOC(=O)C(F)(F)F | 5 |
| Clc1cc(Cl)c2oc(C3(Cn4ccnc4)OCCCO3)cc2c1 | 4 |
| CCCCCCC(COC(=O)c1cccnc1)(COC(=O)c1cccnc1)COC(=O)c1cccnc1 | 5 |
| CC(C)CCCC(C)CCO (configuration not stated) | 5 |
| C=CCCCCC=C | 5 |
| CC/C=C\CCCCCCCCOC(C)=O | 5 |
| CC1OC(OC2C(OC(=O)C=Cc3ccc(O)c(O)c3)C(CO)OC3OCC(c4ccc(O)c(O)c4)OC32)C(O)C(O)C1O (configuration not stated) | 5 |
| O=P(OCC(CBr)(CBr)CBr)(OCC(CBr)(CBr)CBr)OCC(CBr)(CBr)CBr | 5 |
| O=S(=O)(O)c1cc(Nc2nc(Cl)nc(N(CCO)CCO)n2)ccc1C=Cc1ccc(Nc2nc(Cl)nc(N(CCO)CCO)n2)cc1S(=O)(=O)O | 5 |
| COc1ccccc1OC(=O)Cc1ccc(C(=O)c2ccc(C)cc2)n1C | 4 |
| CCOC(=O)CP(=O)(OCC)OCC | 5 |
| CC(C)CCCCCCCOCCCNCCCN | 3 |
| CCCCCCOC(=O)CCCCC(=O)OCCCCCC | 5 |
| CC(C)(CO)c1cc(Cl)nnc1Cl | 4 |
| CO[C@@]1(NC(=O)C(C(=O)O)c2ccc(O)cc2)C(=O)N2C(C(=O)O)=C(CSc3nnnn3C)CO[C@@H]21 (some centres not stated) | 5 |

| Compound | GHS category |
| --- | --- |
| C#CCNC(=O)Oc1cccc2c1OC(C)(C)O2 | 3 |
| CC(C)NC(=O)N1CCc2nc(N=C(N)N)sc2C1 | 4 |
| CCOC(=O)C1(OC(=O)Cc2ccc(Cl)cc2Cl)CCCCC1 | 5 |
| CON=C(C(=O)OC)c1ccccc1CON=C(C)c1cccc(C(F)(F)F)c1 | 5 |
| CCCCCC(=O)[Si](C)(C)C | 5 |
| Brc1ccc(CNC2=NCCS2)cc1 | 3 |
| CC1CCC2(OC1)OC1CC3C4CC=C5CC(O)CCC5(C)C4CCC3(C)C1C2C (configuration not stated) | 5 |
| O=C1CCCCCN1C(=O)c1cccc(C(=O)N2CCCCCC2=O)c1 | 5 |
| Cc1c([N+](=O)[O-])cc2c(c1[N+](=O)[O-])C(C)(C)CC2(C)C | 5 |
| NC(=O)[C@@H]1C[C@]2(NC(=O)NC2=O)c2cc(F)ccc2O1 | 5 |
| COc1ccccc1C1C(Cl)C(=O)N1NC(=O)c1ccccc1O (configuration not stated) | 5 |
| CCCCCCCCCCCCCCCC[Si](OC)(OC)OC | 5 |
| CC1N=C(c2ccccc2Cl)c2c(ccc(NC(=O)NCCO)c2Cl)N(C)C1=O (configuration not stated) | 5 |
| Cc1cccc(C)c1N=C(O)c1cccnc1O | 5 |
| CCCCCCCCCC(=O)Oc1ccc(C(=O)O)cc1 | 5 |
| CC/C=C\CCC1(C)CCC(=O)O1 (configuration not stated) | 5 |
| CC1(C)S[C@@H]2[C@H](NC(=O)C(c3ccccc3)S(=O)(=O)O)C(=O)N2[C@H]1C(=O)O (some centres not stated) | 5 |
| CC(C)CC(C)c1ccccc1N (configuration not stated) | 5 |
| CCCCCCCCCCCC(=O)OCC(C)O (configuration not stated) | 5 |
| c1ccc(COc2ccc3ccccc3c2)cc1 | 5 |
| COC(=O)C1=C(C)NC(C)=C(C(=O)OC(C)C)C1c1cccc2nonc12 (configuration not stated) | 5 |
| CCCC1CCC(=O)O1 (configuration not stated) | 5 |
| CCCCOC(=O)c1ccc(-n2nc(OCCCN3CCCCC3)c3ccccc32)cc1 | 4 |
| CC(=O)N(C)C(=O)Oc1cccc2c1OC(C)(C)O2 | 4 |

| Compound | GHS category |
| --- | --- |
| CC(C)=CCN(CC=C(C)C)CCC(C)(C#N)c1cccc2ccccc12 (configuration not stated) | 4 |
| CCOC(=O)c1ccccc1OC(N)=O | 5 |
| CC(C)=CCSC[C@H](N)C(=O)O | 5 |
| CCCC(=O)NC(C)C(=O)O (configuration not stated) | 5 |
| O=C1c2ccccc2C(=O)c2c(Nc3ccccc3)ccc(O)c21 | 5 |
| Cc1[nH]nc(C(=O)Nc2cccc(C(F)(F)F)c2)c1Br | 5 |
| NC(=O)Oc1ccccc1C(=O)Oc1cc(Cl)ccc1Cl | 5 |
| CCC(C)(CCC(C)C)C(=O)OCC1CO1 (configuration not stated) | 5 |
| O=c1[nH]c(CCl)nc2sc3c(c12)CCCC3 | 5 |
| CC(=O)N1c2ccccc2SC1c1cc([N+](=O)[O-])ccc1OCCCN(C)C1CCCCC1 (configuration not stated) | 5 |
| CNc1ccc(C(=O)O)cc1[N+](=O)[O-] | 5 |
| CCO[Si](CCCOCC1CO1)(OCC)OCC (configuration not stated) | 5 |
| CCN(CC)c1ccc(C=NN(c2ccccc2)c2ccccc2)cc1 | 5 |
| CCC1(c2ccc(O)cc2)NC(=O)NC1=O (configuration not stated) | 5 |
| COC(=O)[C@H](Cc1ccccc1)NC(=O)[C@@H](N)CC(=O)O (H-Asp-Phe-OMe) | 5 |
| CC(=O)[C@H]1CC[C@H]2[C@@H]3C=CC4=CC(=O)CC[C@@]4(C)[C@@H]3CC[C@]12C | 5 |
| CC1(C(=O)Nc2ccc(O)c(Cl)c2Cl)CCCCC1 | 5 |
| COc1ccccc1NC(=O)C(N=Nc1ccc(Cl)cc1[N+](=O)[O-])C(C)=O (configuration not stated) | 5 |
| O=[N+]([O-])c1ccc(CCc2ccc([N+](=O)[O-])cc2)cc1 | 5 |
| CCO[Si](OCC)(OCC)N(CC)CC | 4 |
| CCCN(C=Nc1cccc(=O)[nH]1)CCC | 5 |
| CNC(=O)Oc1c(C(C)(C)C)cc(C)cc1C(C)(C)C | 5 |
| CCC=CCC=O | 5 |
| CC(C)CCCCCCCCOCCCNCCC#N | 5 |

| Compound | GHS category |
| --- | --- |
| O=C(Nc1ccc(NC(=O)c2cc3ccccc3c(N=Nc3ccc(Cl)cc3[N+](=O)[O-])c2O)c(Cl)c1)c1cc2ccccc2c(N=Nc2ccc(Cl)cc2[N+](=O)[O-])c1O | 5 |
| CN(C)Cn1c(=O)oc2ccc(Cl)cc21 | 4 |
| C=CC(=O)OCCN(C)S(=O)(=O)C(F)(F)C(F)(F)C(F)(F)C(F)(F)F (racemic) | 5 |
| C=C1CC[C@@]23C[C@@H]1C(C)(C)[C@@H]2C(O)C[C@H]3C (some centres not stated) | 5 |
| COC(=O)c1ccccc1S(=O)(=O)NC(=O)Nc1nc(C)nc(OC)n1 | 5 |
| O=C(O)c1cc(N=Nc2ccc(N=Nc3ccc(S(=O)(=O)O)cc3)cc2)ccc1O | 5 |
| CCC(c1ccc(O)cc1)C(C#N)c1ccc(O)cc1 (configuration not stated) | 5 |
| CSCC[C@H](NC(=O)CCSC(=O)c1ccccc1)C(=O)OC(C)C | 5 |
| CCCCCCCCCCOC1OC(CO)C(O)C(O)C1O (configuration not stated) | 5 |
| CCCCCCCC(=O)OCCC(C)C | 5 |
| C=CCSc1nc2ccc(Cc3ccccc3)cc2[nH]1 | 5 |
| CCCCCCCCCCCCCCCCCC(=O)OC | 5 |
| O=C(O)C1C2C=CC(C2)C1C(=O)O (configuration not stated) | 5 |
| CCN(CC)CCOC(=O)c1ccc(NC(=O)C(C)(C)Oc2ccccc2Cl)cc1 | 5 |
| Cc1ccc(N=Nc2c(O)c(C(=O)O)cc3ccccc23)c(S(=O)(=O)O)c1 | 5 |
| CC(=O)Nc1c(I)c(C(=O)N[C@H]2C(O)O[C@H](CO)[C@@H](O)[C@@H]2O)c(I)c(N(C)C(C)=O)c1I (some centres not stated) | 5 |
| OCCCOc1nn(-c2cccc(C(F)(F)F)c2)c2ncccc12 | 4 |
| CC1CC2(CC(C)OC2=O)C(=O)O1 (configuration not stated) | 5 |
| C[Si]1(C)O[Si](C)(c2ccccc2)O[Si](C)(C)O[Si](C)(c2ccccc2)O1 (configuration not stated) | 5 |
| CCOC(=O)OCCOc1cc(O)c2c(c1N)C(=O)c1ccccc1C2=O | 5 |
| CN1CC(O)N(c2cc(C(C)(C)C)on2)C1=O (configuration not stated) | 4 |

Reference: the CATMoS acute toxicity set (Mansouri et al. 2021)
